Measured values: ChEMBL document CHEMBL2375297, “Coumarins hinged directly on benzimidazoles and their ribofuranosides to inhibit hepatitis C virus” (Eur J Med Chem, 2013)

Assays:
[1] = Cytostatic activity against human Huh5-2 cells after 3 days by MTS method; type: cell-based, Huh-5-2
[2] = Selectivity index, ratio of CC50 for human Huh5-2 cells to EC50 for Hepatitis C virus genotype 1b infected in human Huh5-2 cells; type: toxicity, cell-based, Huh-5-2; conditions: read-out: Ratio CC50/EC50
Hepatitis C virus = assay: Antiviral activity against Hepatitis C virus genotype 1b infected in human Huh5-2 cells assessed as luciferase activity after 4 days by Steady-Glo luciferase assay; type: functional, organism-based, Hepacivirus hominis; conditions: Huh-5-2, 96 h

For `COc1cccc2cc(-c3nc4ccc(C)cc4[nH]3)c(=O)oc12`, the CC50 at 72 h [1] was 12 µM, the selectivity ratio [2] was 1 and the EC50 (Hepatitis C virus) was 12 µM.

`CC(=O)OC[C@H]1O[C@@H](n2c(-c3cc4ccccc4oc3=O)nc3ccccc32)[C@H](OC(C)=O)[C@@H]1OC(C)=O` gave a CC50 at 72 h [1] of 98 µM, a selectivity ratio [2] of 1.6 and an EC50 (Hepatitis C virus) of 60 µM.

With `CC(=O)OC[C@H]1O[C@@H](n2c(-c3c(C)c4ccccc4oc3=O)nc3ccccc32)[C@H](OC(C)=O)[C@@H]1OC(C)=O` the CC50 at 72 h [1] was 941 µM, the selectivity ratio [2] was 1 and the EC50 (Hepatitis C virus) was 941 µM.

Compound `COc1cccc2cc(-c3nc4cccnc4[nH]3)c(=O)oc12` has a CC50 at 72 h [1] of 170 µM, a selectivity ratio [2] of 2 and an EC50 (Hepatitis C virus) of 84 µM.

For `Cc1ccc2[nH]c(-c3cc4c(ccc5ccccc54)oc3=O)nc2c1`, the CC50 at 72 h [1] was 77 µM, the selectivity ratio [2] was 14 and the EC50 (Hepatitis C virus) was 5.5 µM.

For `O=c1oc2ccccc2cc1-c1nc2cc3ccccc3cc2[nH]1`, the CC50 at 72 h [1] was 135 µM, the selectivity ratio [2] was 1.3 and the EC50 (Hepatitis C virus) was 105 µM.

Compound `O=C(O)c1ccc2[nH]c(-c3cc4ccc(I)cc4oc3=O)nc2c1` has a CC50 at 72 h [1] of 118 µM, a selectivity ratio [2] of 1 and an EC50 (Hepatitis C virus) of 118 µM.

`O=C(O)c1ccc2[nH]c(-c3cc4cc([N+](=O)[O-])ccc4oc3=O)nc2c1` gave a CC50 at 72 h [1] of 10 µM, a selectivity ratio [2] of 1.5 and an EC50 (Hepatitis C virus) of 6.9 µM.

Compound `O=C(O)c1ccc2[nH]c(-c3cc4ccccc4oc3=O)nc2c1` has a CC50 at 72 h [1] of 13 µM, a selectivity ratio [2] of 0.32 and an EC50 (Hepatitis C virus) of 40 µM.

Work on `CC(=O)Oc1ccc2c(C)c(-c3nc4ccccc4[nH]3)c(=O)oc2c1` yielded a CC50 at 72 h [1] of 153 µM, a selectivity ratio [2] of 1 and an EC50 (Hepatitis C virus) of 153 µM.

`Cc1c(-c2nc3ccccc3[nH]2)c(=O)oc2ccccc12` showed a CC50 at 72 h [1] of 27 µM, a selectivity ratio [2] of 0.66 and an EC50 (Hepatitis C virus) of 40 µM.

In the case of `Cc1c(-c2nc3cc(F)ccc3[nH]2)c(=O)oc2ccccc12`, the CC50 at 72 h [1] is reported as 170 µM, the selectivity ratio [2] is reported as 2.2 and the EC50 (Hepatitis C virus) is reported as 79 µM.

`O=c1oc2ccccc2cc1-c1nc2cc(F)ccc2[nH]1` showed a CC50 at 72 h [1] of 13 µM, a selectivity ratio [2] of 0.15 and an EC50 (Hepatitis C virus) of 84 µM.

Work on `Cc1cc2nc(-c3cc4cc(Br)ccc4oc3=O)[nH]c2cc1C` yielded a CC50 at 72 h [1] of 172 µM, a selectivity ratio [2] of 4.3 and an EC50 (Hepatitis C virus) of 40 µM.

In the case of `Cc1cc2nc(-c3c(C)c4ccccc4oc3=O)[nH]c2cc1C`, the CC50 at 72 h [1] is reported as 77 µM, the selectivity ratio [2] is reported as 2 and the EC50 (Hepatitis C virus) is reported as 40 µM.

`Cc1cc2nc(-c3cc4ccccc4oc3=O)[nH]c2cc1C` gave a CC50 at 72 h [1] of 23 µM, a selectivity ratio [2] of 7.9 and an EC50 (Hepatitis C virus) of 3 µM.

For `Cc1ccc2[nH]c(-c3c(C)c4ccccc4oc3=O)nc2c1`, the CC50 at 72 h [1] was 29 µM, the selectivity ratio [2] was 1 and the EC50 (Hepatitis C virus) was 28 µM.

`Cc1ccc2[nH]c(-c3cc4ccccc4oc3=O)nc2c1` gave a CC50 at 72 h [1] of 2.3 µM, a selectivity ratio [2] of 1 and an EC50 (Hepatitis C virus) of 2.3 µM.

`O=c1oc2ccccc2cc1-c1nc2ccccc2n1[C@@H]1O[C@H](CO)[C@@H](O)[C@H]1O` gave a CC50 at 72 h [1] of 127 µM, a selectivity ratio [2] of 6.4 and an EC50 (Hepatitis C virus) of 20 µM.

For `Cc1c(-c2nc3ccccc3n2[C@@H]2O[C@H](CO)[C@@H](O)[C@H]2O)c(=O)oc2ccccc12`, the CC50 at 72 h [1] was 122 µM, the selectivity ratio [2] was 1.1 and the EC50 (Hepatitis C virus) was 110 µM.
